Measurements published in patent US5561042A, “Diamine platinum naphthalimide complexes as antitumor agents” (Cancer Therapy and Research Center, priority 1995, dated 1996).
Values after ≈ are worked out from the molar mass of the structure shown.

Legend:
[1] = system: SV40 DNA (Form I, negatively supercoiled); settings: comparison with compound 21; no own test described; cited from earlier work
[2] = system: Murine B16 melanoma cell line; assay: In vitro growth inhibition (MTT), B16 melanoma; assay type: cell-based; settings: for IC50: Mus musculus, B16, 72 h, MTT, 3 days
Text: (§1) P388 murine leukemic cell line was obtained from the DCT Tumor Repository (National Cancer Institute, Frederick Cancer Research and Development, Frederick Md. 21702). HT29 Human Colon Carcinoma cell line was obtained from the American Type Culture Collection (12301 Parklawn Drive, Rockville, Md. 20852). B16 Melanoma cell line was obtained from DuPont Merck Pharmaceutical Company (Glenolden, Pa. 19036). MCF-7 Human Breast Carcinoma cell line was a gift from Dr. K. Osborne (Department of Medicine, The University of Texas Health Science Center at San Antonio, San Antonio, Tex. 78284). All cell lines were incubated at 37° C. in a humidified atmosphere of 5% CO2 -95% air. Murine B16 melanoma cell line was grown in RPMI 1640 medium supplemented with 10% heat-inactivated fetal bovine serum, 2 mM L-glutamine, 50 units/ml penicillin, 50 μg/ml streptomycin, 25 μg/ml gentamycin, 0.75% sodium bicarbonate, 10 mM HEPES buffer (pH 7.4), and 0.06 mg/ml AntiPPLO. Murine P388 leukemic and the human HT-29 colon adenocarcinoma cell lines were maintained in RPMI 1640 medium supplemented with 10% heat-inactivated fetal bovine serum. MCF-7M human breast adenocarcinoma was maintained in IMEM medium supplemented with 5% non heat-inactivated fetal bovine serum and 1 nM insulin.
(§2) Exponentially growing cells (1-2×10^3 cells, unless specified otherwise) in 0.1 ml medium were seeded on day 0 in a 96-well microtiter plate. On day 1, 0.1 ml aliquots of medium containing graded concentrations of test compounds were added in duplicate to the cell plates. After incubation at 37° C. in a humidified incubator for 3 days (P388, B16) or 6 days (HT-29, MCF-7M), the plates were centrifuged briefly and 100 μl of the growth medium was removed. Cell cultures were incubated with 50 μl of 3-(4,5-dimethylthiazol-2-yl)-2,5-diphenyl-tetrazolium bromide [MTT, 1 mg/ml in Dulbecco's phosphate buffered saline (PBS)] for 4 hr at 37° C. The resulting purple formazan precipitate was solubilized with 200 μl of 0.04N HCl in isopropyl alcohol. Absorbance was monitored in a BioRad Model 3550 Microplate Reader at a test wavelength of 570 nm and a reference wavelength of 630 nm. The absorbance was transferred to a PC 486 computer. The IC50 values were determined by a computer program (EZ-ED50) that fit all of the data to the following four-parameterlogistic equation:
(§3) Y=((Am -Ao)/(1+(X/IC50)^n))+Ao
(§4) where Am is the absorbance of control cells, Ao is the absorbance of cells in the presence of highest agent concentration, Y is the observed absorbance, X is the agent concentration, IC50 is the concentration of agent that inhibits the cell growth by 50% of control cells (based on the absorbance) and n is the slope of the curve.

[3] = target: poly (dA.dT) - poly (dA.dT); assay: Ethidium bromide displacement, poly(dA.dT)-poly(dA.dT); assay type: binding; settings: 1 μM DNA, 1.26 μM ethidium bromide, pH 7.0, read-out: FI50, poly (dA.dT) - poly (dA.dT)
Method: (§5) A 10× Binding solution was prepared by combining 0.93 ml of an aqueous NaCl solution (5M), 2.0 ml of an aqueous Tris HCl (500 mM) solution, 0.1 ml of an EDTA solution (500 mM) and 46.97 ml of water. The resultant solution was 93 mM in NaCl, 20 mM in Tris HCl, and 1 mM in EDTA. Stock DNA solution were prepared as follows: Poly (dG·dC)-(dG·dC) (ε254=8.4/mM; 27-7910-02), poly(dA·dT)-(dA·dT) (ε262=6.6/mM; 27-7870-02), and lambda DNA (ε260-7.0/mM; 27-4111-01) were purchased from Pharmacia. Solutions were prepared by resuspending either poly (dG·dC)-(dG·dC) or poly(dA·dT)-(dA·dT)in 1 ml of 10× DNA Binding Solution. Lambda DNA is already in solution as purchased.
(§6) Poly (dG·dC)-(dG·dC), poly(dA·dt)-(dA·dt) and lambda DNA concentrations were determined as follows: 980 μl of 10× DNA Binding Solution was pipetted into a 1 ml cuvette. A blank was run on the UV spectrophotometer. 20 μl of the DNA stock of unknown concentration was then added into the cuvette. The sample was then scanned between 210 nm to 500 nm and the absorbance recorded at 254 nm for poly(dG·dC)-(dG·dC), at 262 nm for poly(dA·dT)-(dA·dT) and at 260 nm for lambda DNA. The solution was transferred to a clean tube. This procedure was followed for three different solutions with the absorbance taken as the average of the three. The concentration of poly(dG·dC)-(dG·dC) stock was calculated to be A254 /8.4×1000 (in μM). The concentration of poly(dA·dT)-(dA·dT) stock was calculated to be A262 /6.6×1000 (in μM). The concentration of lambda DNA stock was calculated to be A260 /7.0×1000 (in μM).
(§7) The binding of the bis-naphthalimides to DNA and to synthetic polynucleotide duplexes was determined by an ethidium bromide displacement assay that measures the reduction of fluorescence when ethidium bromide is displaced from DNA (Baguley, 1981). The fluorescence intensity of a 3 ml solution containing 9.3 mM NaCl, 2 mM Tris-HCl (pH 7.0), 100 μM EDTA, 1 μM DNA (in nucleotides) and 1.26 μM ethidium bromide in a quartz cuvette was measured at the excitation (546 nm) and emission (600 nm) wavelengths on a Shimadzu RF5000U spectrofluorometer. Graded concentrations of agent were then added and the fluorescence intensity was measured. The concentration of compound required to reduce the fluorescence intensity by 50% of that of control (FI50) was determined. Therefore, the lower the FI50 the stronger the binding affinity a particular compound has for DNA.
(§8) The ability of bis-naphthalimides of the present invention and the known anti-cancer agents compound 22 and DMP840, (R,R)-2,2'[1,2-ethanediylbis[imino(1-methyl-2,1-ethanediyl)]]-bis[5-nitro- 1H benz[de]isoquinoline-1,3-(2H)dione]dimethanesulfonate, to bind to DNA and to synthetic oligonucleotide duplexes was measured using an ethidium bromide displacement assay. Ethidium bromide, a known DNA intercalator, has no fluorescence in the absence of DNA; however, fluorescence intensity increases when ethidium bromide binds to DNA. The ethidium bromide displacement assay measures the decrease in fluorescence intensity caused by DNA-bound ethidium bromide with DNA interacting agents.

[4] = system: poly (dG.dC) - poly (dG.dC); assay: Ethidium bromide displacement, poly(dG.dC)-poly(dG.dC); assay type: binding; settings: for Ratio (AT/GC): FI50 poly(dA.dT)-poly(dA.dT) / FI50 poly(dG.dC)-poly(dG.dC); for IC50: ethidium bromide displacement, 1 μM DNA, 1.26 μM ethidium bromide, pH 7.0, read-out: FI50, poly (dG.dC) - poly (dG.dC)
Method: as §5, §6, §7, §8

Lambda DNA = assay: Ethidium bromide displacement, lambda DNA; assay type: binding; settings: 1 μM DNA, 1.26 μM ethidium bromide, pH 7.0, read-out: FI50, Lambda DNA
Method: as §5, §6, §7, §8

DNA = assay: Ethidium bromide displacement, DNA binding in general
Method: as §7
as §8, with “The ethidium bromide displacement assay measures the decrease in fluorescence intensity caused by DNA-bound ethidium bromide with DNA interacting agents.” left out

[5] = system: DLD-2 human colon adenocarcinoma; settings: in vivo; cited from earlier work
[6] = system: MCF-7 Human Breast Carcinoma cell line; assay: In vitro growth inhibition (MTT), MCF-7 breast carcinoma; assay type: cell-based; settings: Homo sapiens, MCF7, 144 h, 6 days
Text: as §1, §2, §3, §4

[7] = system: P388 murine leukemic cell line; assay: In vitro growth inhibition (MTT), P388 leukemia; assay type: cell-based; settings: Mus musculus, P388, 72 h, 3 days
Text: as §1, §2, §3, §4

B16 murine melanoma = assay: B16 melanoma in vivo, survival of B6D2F1 mice; settings: q.d. × 5, i.p.; for T/C: mean survival treated/control
Method: B6D2F1 mice received i.p. inocula of B16 murine melanoma brei prepared from B16 tumors growing subcutaneously in mice (day 0). On day 1, rumored mice were treated with drugs or vehicle control; the route of drug administration and schedule were selected as appropriate for the study in question. If dosing information for agents was not available, the maximum tolerated dose (MTD) was determined in initial dose finding experiments in non-tumored mice. In a typical experiment, drugs were given at their MTD and 1/2 MTD doses i.p. on a daily×5 schedule.
The mean survival times of all groups were calculated, and results were expressed as mean survival of treated mice/mean survival of control mice (T/C)×100%. A T/C value of 150 means that the mice in the treated group lived 50% longer than those of the control group; this is sometimes referred to as the increase in life space, or ILS value.
Mice that survived for 60 days were considered long term survivors, or cures, in the B16 model. The universally accepted cut-off for activity in this model, which has been used for years by the National Cancer Institute, is T/C=125.
Statistics were performed on the data using primarily the log rank p-value test.

[8] = system: MX-1 human breast carcinoma; settings: in vivo; cited from earlier work
LX-1 lung carcinoma = settings: in vivo; cited from earlier work
[9] = in vivo; cited from earlier work
[10] = system: solid tumor xenografts, human and murine leukemia, doxorubicin resistant cell lines, colon carcinoma cells; settings: cited from earlier work
[11] = cited from earlier work
[12] = human, in vivo; cited from earlier work
[13] = human, in vivo; cited from earlier work; remark: listed apart in the source
B16 melanoma = settings: cited from earlier work
topoisomerase II = settings: cited from earlier work

For N.N.[Cl][Pt][Cl] [Cisplatin], the “effect on DNA conformation (in words)” value [1] is given as “does not show such an effect and causes unwinding only after prolonged incubation”.

For O=C1c2cccc3cc([N+](=O)[O-])cc(c23)C(=O)N1CCOCCOCCN1C(=O)c2cccc3cc([N+](=O)[O-])cc(c23)C1=O [Compound 19, 5-[2-(3-Nitronaphthalene-1,8-dicarboximido)ethoxy]-1-(3-nitronaphthalene-1,8-dicarboximido)-3-oxapentane], the “anticancer activity against B16 melanoma in vitro (in words)” value [2] was “potent anticancer activity against this melanoma type”, the IC50 [2] was 51 nM and the IC50 [3] was 83000 nM. The “Ratio (AT/GC)” value [4] was 1.7, the IC50 [4] was 49000 nM and the IC50 (Lambda DNA) was 56000 nM. For the same molecule, the “DNA binding (in words)” value (DNA) was “did not bind to DNA”.

For C[C@H](CNCCNC[C@@H](C)N1C(=O)c2cccc3cc([N+](=O)[O-])cc(c23)C1=O)N1C(=O)c2cccc3cc([N+](=O)[O-])cc(c23)C1=O [DMP840, (R,R)-2,2'[1,2-ethanediylbis[imino (1-methyl-2,1-ethanediyl)]]-bis[5-nitro-1H-benz[de]isoquinoline-1,3-(2H)-dione]dimethanesulfonate], the “anti-tumor activity, DLD-2 (in words)” value [5] is listed as “anti-tumor efficacy in vivo”, the IC50 [6] is listed as 7 nM and the IC50 [7] is listed as 6 nM. The “60-Day Survivors” value (B16 murine melanoma; 5 mg/kg) was 0, the “Wt. Ch. (%) (Day 7)” value (B16 murine melanoma; 5 mg/kg) was “+4.6%” and the T/C (B16 murine melanoma; 5 mg/kg) was 156%. The “60-Day Survivors” value (B16 murine melanoma; 10 mg/kg) was 0, the “Wt. Ch. (%) (Day 7)” value (B16 murine melanoma; 10 mg/kg) was -0.33% and the T/C (B16 murine melanoma; 10 mg/kg) was 179%. For the same molecule, the IC50 [2] was 27 nM, the IC50 [3] was 3280 nM and the “Ratio (AT/GC)” value [4] was 35.2. The IC50 [4] was 92 nM, the “anti-tumor activity, MX-1 (in words)” value [8] was “anti-tumor efficacy in vivo” and the IC50 (Lambda DNA) was 73 nM. For the same molecule, the “anti-tumor efficacy, LX-1 (in words)” value (LX-1 lung carcinoma) was “anti-tumor efficacy in vivo”, the “irreversible toxicities (in words)” value [9] was “no irreversible toxicities” and the “anti-tumor efficacy in vivo (in words)” value [10] was “anti-tumor efficacy in vivo”. The water solubility [11] was 3400 µg/mL (≈ 5.44 mM).

In the case of COc1cccc2c1C(=O)c1c(O)c3c(c(O)c1C2=O)C[C@@](O)(C(=O)CO)C[C@@H]3O[C@H]1C[C@H](N)[C@H](O)[C@H](C)O1 [Doxorubicin], the “cardiomyopathy (in words)” value [12] is given as “unusual cardiomyopathy”.

In the case of O=C1c2c(O)cccc2-c2nn(CCNCCO)c3ccc(NCCNCCO)c1c23 [DuP 941], the “clinical anti-tumor activity (in words)” value [13] is listed as “exhibit clinical anti-tumor activity”.

For CS(=O)(=O)O.O=C1c2cccc3cc([N+](=O)[O-])cc(c23)C(=O)N1CCCCNCCCN1C(=O)c2cccc3cc([N+](=O)[O-])cc(c23)C1=O [XB596], the “activity against B16 melanoma (in words)” value (B16 melanoma) is given as “ineffective against B16 melanoma”, the “anti-tumor activity, DLD-2 (in words)” value [5] is given as “demonstrated in vivo anti-tumor activity” and the “anti-tumor activity, MX-1 (in words)” value [8] is given as “demonstrated in vivo anti-tumor activity”. The water solubility [11] was 45 µg/mL.

In the case of CN(C)CCN1C(=O)c2cccc3cc(N)cc(c23)C1=O [amonafide], the “inhibition of topoisomerase II (in words)” value (topoisomerase II) is given as “inhibit topoisomerase II”.

In the case of COc1cc(NS(C)(=O)=O)ccc1Nc1c2ccccc2nc2ccccc12 [amsacrine], the “clinical anti-tumor activity (in words)” value [13] is given as “exhibit clinical anti-tumor activity”.

For COc1cccc2c1C(=O)c1c(O)c3c(c(O)c1C2=O)C[C@@](O)(C(C)=O)C[C@@H]3O[C@H]1C[C@H](N)[C@H](O)[C@H](C)O1 [daunorubicin], the “cardiomyopathy (in words)” value [12] is given as “unusual cardiomyopathy”.
